Assay results: US8273775B2, “Non-steroidal brassinosteroid mimetic” (priority 2006, dated 2012)

Key:
[1] = tested on: DR5, CYCB1;1 and CDKB1;1 promoters fused to GUS; experiment: GUS assay of promoter-reporter markers in first leaf; assay type: in vivo, Arabidopsis; conditions: for CDKB1;1-GUS expression: 30 μM ABRASIN or 1 μM BL, days 8 and 10
Method: FIG. 17: Investigation of differences in the rescue strategy of bri1-116 and cpd mutants treated with ABRASIN (30 μM) or BL (1 μM). The activation of markers for auxin response (DR5) and cell division (CYCB1; 1 and CDKB1; 1) was followed by localization of their promoters fused to β-glucuronidase (GUS) reporter gene. […] Samples for GUS assay were taken on day 6th (i.e. 1 day treatment), 8th (i.e. 3 days treatment), 10th (i.e. 5 days treatment). (A.) The effect of ABRASIN on the first leaf of bri1-116 and Col-0 plants—activity localization of DR5, CYCB1; 1 and CDKB1; 1 promoters fused to GUS reporter gene (B.) The effect of ABRASIN on the first leaf of cpd and Col-0 plants—activity localization of CYCB1; 1 and CDKB1; 1 promoters fused to GUS reporter gene. BL: brassinolide; BIK: abrasin.
(§1) Col-0, the null BR signaling bri1-116 (Friedrichsen et al., 2000) and BR biosynthetic cpd (Szekeres et al., 1996) mutants were subjected to phenotype rescue analysis by treatments with BL and ABRASIN. As a negative control, dimethylsulfoxide (DMSO) was used. Plants were germinated in vitro for 5 days on ½ MS containing DMSO medium and from day 6th to day 11th they were transferred on medium supplemented with BL (10 nM, 100 nM, 1000 nM), ABRASIN (5 μM, 10 μM, 30 μM) or DMSO. Cotyledons and leaves were collected for flowcytometric analysis at the 11th day (i.e. 6 days of treatments). Samples for β-glucuronidase (GUS) assay were taken on day 6th (i.e. 1 day treatments), 8th (i.e. 3 days treatments), 10th (i.e. 5 days treatments). Rescue of soil-grown mutants at different growth stages was checked by watering bri1-116 and cpd mutants with either BL or 2 ml 300 μM ABRASIN per day.
GUS staining was carried out by the method described by Jefferson et al. (1987). Images of GUS stained plants were taken with binocular microscope (MZ16, Leica) and Nikon camera.

[2] = tested on: cpd, det2-1 mutants; experiment: Phenotype rescue of BR-biosynthesis mutants; assay type: in vivo, Arabidopsis thaliana; conditions: for phenotype rescue of cpd mutant: day 5 to day 11 on 1 μM BL or 30 μM ABRASIN; for rescue of dwarfed phenotype: light-grown, abrasin 50 μM or BL 1 μM
Method: (§2) FIG. 5: Effect of brassinolide (BL) and abrasin (I5) treatment on mutants. WT or mutant plants were grown under standard conditions on agar plates. After 3 days of germination, plants were transferred to agar plates containing abrasin at a concentration of 50 μM or BL at a concentration of 1 μM.
(§3) For further phenotypical analysis, all plants were grown on vertically oriented square plates (Greiner Labortechnik, Austria) with solid medium derived from standard Murashige and Skoog medium under the same conditions. For the hypocotyl-elongation assay, plants were grown in the dark at 22° C. under the same conditions.
as §1

[3] = tested on: bri1-116, bri1-301 mutants; experiment: Phenotype rescue of BR perception (receptor) mutants; assay type: in vivo, Arabidopsis thaliana; conditions: for phenotype rescue of bri1-116 mutant: day 5 to day 11 on 1 μM BL or 30 μM ABRASIN; for rescue of dwarfed phenotype: light-grown, abrasin 50 μM or BL 1 μM
Method: as §2, §3, §1

[4] = tested on: bri1-116 and cpd mutants; experiment: Flowcytometric analysis of DNA content of cotyledons and leaves; assay type: in vivo, Arabidopsis; conditions: 6 days of treatments
Method: FIG. 16: Rescue of bri1-116 and cpd mutants grown on different concentrations of ABRASIN and BL. The plants were germinated on MS+DMSO medium till day 5 and afterwards transferred on MS supplemented with the respective concentration of ABRASIN and BL for 6 more days. Flowcytometric analysis of cotyledons and leaves was performed at the last day of treatments. (A.) Rescue of bri1-116 mutants by ABRASIN. Increasing the ABRASIN concentration promotes cell division activation. (B.) Rescue of cpd mutants by ABRASIN. Increasing the ABRASIN concentration promotes cell division activation. (C.) Rescue of cpd mutants by BL. Both cell division and endoreduplication take place in the BL rescue strategy. BL: brassinolide; BIK: abrasin.
as §1
Samples for flow cytometric analysis were collected and analyzed as described earlier (De Veylder et al., 2001)

[5] = tested on: BES1 protein in 35S:BES1:GFP plants; experiment: Western blot analysis of BES1 phosphorylation state; assay type: in vivo, Arabidopsis thaliana
Method: FIG. 8: A: Western Blot analysis of the BES1 protein in 35S:BES1:GFP plants treated with BL and abrasin (indicated as I5 throughout the figure) (A); MG132 with BL or abrasin (B); a time course with abrasin (C) and a concentration gradient with abrasin (D). B: Abrasin and BL induce similar transcriptional regulation of the BR pathway.
For protein extraction, six-day-old seedlings were grown under standard conditions as described earlier on solid medium. Plants were next soaked in liquid MS-medium supplemented with the indicated compounds (concentrations and time periods as indicated in figures). Subsequently, plants were frozen in liquid nitrogen, ground and homogenized in ice-cold homogenization buffer (25 mM Tris-HCl (pH 8), 5 mM EDTA, 1 mM β-Mercapto-ethanol, 15 mM MgCl—2, 85 mM NaCl, 0.1% Tween 20, 1 protease inhibitor tablet/50 ml, Complete (Roche diagnostics, Belgium)). The homogenate was centrifuged twice (5 min, 14.000 rpm, 4° C.) in an Eppendorf Centrifuge 5417. Loading buffer was added, the samples were heated for 10 min at 95° C. and centrifuged. The samples were separated on a 12% acrylamide gel or a 4-20% gradient pre-cast gel (Bio-Rad) and blotted on nitrocellulose membranes (Hybond-C super, GE-Biosciences, UK) in 190 mM glycine and 25 mM Tris-Hcl using a mini-blotting system (Bio-Rad, USA) for 1 h. Membranes were blocked overnight at 4° C. in phosphate buffer with 0.1% Tween 20 and 5% skim milk (BD Difco, USA). For immunodetection, anti-BES1 antibodies at 1:2000 dilution and anti-GFP antibodies at 1:1000 dilution were used as primary antibody. As secondary antibody, anti-rat and anti-rabbit were used at 1:10.000 dilution. The proteins were detected by chemiluminescence (Perkin-Elmer, USA).

In the case of `CC(C)[C@H](C)[C@@H](O)[C@H](O)[C@@H](C)[C@H]1CC[C@H]2[C@@H]3COC(=O)[C@H]4C[C@H](O)[C@H](O)C[C@]4(C)[C@H]3CC[C@]12C` [BL, brassinolide, reference compound], the “CDKB1;1-GUS expression” value [1] is reported as “induced only stomata specific expression”, the “concentration sufficient to rescue the mutant phenotypes” value ([2]; 6 days of treatments) is reported as 10 nM and the “phenotype rescue of cpd mutant” value [2] is reported as “rescued the dwarf statute of the cpd to a wild-type”. The “rescue of dwarfed phenotype” value [2] was “rescues the cpd and det2-1 mutants”, the “phenotype rescue of bri1-116 mutant” value [3] was “bri1-116 was insensitive and therefore unaffected by BL” and the “rescue of dwarfed phenotype” value [3] was “but not the bri1 receptor mutants”. The “DNA content distribution of leaves” value [4] was “did not significantly changes the DNA content distribution” and the BES1 phosphorylation state ([5]; addition of BL or MG132) was “induces more non-phosphorylated protein”.
For `O=C(O)CCC(=O)Nc1ccc(Br)cn1` [abrasin, 4-[(5-bromo-2-pyridinyl)amino]-4-oxobutanoic acid], the “CYCB1;1 expression (cell division marker)” value ([1]; 30 μM ABRASIN) was “increased the CYCB1; 1 expression”, the “CDKB1;1-GUS expression” value [1] was “activated CDKB1; 1-GUS predominately in the leaf vasculature” and the “DR5 activity in the leaves” value ([1]; 1 day of treatment) was “did not significantly increases the DR5 activity in the leaves”. For the same molecule, the “DR5 activity / auxin levels in the leaves” value ([1]; longer treatment) was “the auxin levels in both bri1-116 and wild type leaves were increased after longer treatment”, the “phenotype rescue of cpd mutant” value [2] was “rescued the phenotypes of both bri1-116 and cpd mutants to the wild-type” and the “rescue of dwarfed phenotype” value [2] was “all mutant lines, including the bri1 receptor mutants, showed an elongated phenotype”. For the same molecule, the “time after treatment at which phenotypic changes were observed” value ([3]; bri1-116 and cpd mutants, 30 μM ABRASIN) was 1 days, the “concentration sufficient to rescue the mutant phenotypes” value ([3]; bri1-116 and cpd mutants, 6 days of treatments) was 10 µM and the “phenotype rescue of bri1-116 mutant” value [3] was “rescued the phenotypes of both bri1-116 and cpd mutants to the wild-type”. For the same molecule, the “rescue of dwarfed phenotype” value [3] was “all mutant lines, including the bri1 receptor mutants, showed an elongated phenotype”, the “DNA content distribution of leaves” value [4] was “significantly increased the 2C and 4C content and completely suppressed the 16C content” and the “DNA content of cotyledons” value [4] was “the values for cotyledons did not differ form the untreated controls”. For the same molecule, the “total amount of BES1 protein” value ([5]; abrasin 50 μM) was “the total amount of BES1 protein is also reduced”, the BES1 phosphorylation state ([5]; abrasin 5 to 10 μM) was “a shift towards non-phosphorylated BES1 is observed” and the “time to shift towards the non-phosphorylated BES1 protein” value ([5]; after addition to the medium) was no more than 30 min.
